We go through two compounds from patent publication EP4631931A1, “HDAC INHIBITOR AND USE THEREOF” (Wigen Biomedicine Technology (Shanghai) Co., Ltd., priority 2022, dated 2024).

The target of one data set is T1, HDAC10 (Homo sapiens, UniProt Q969S8).
T1 sequence (Q969S8 1-669): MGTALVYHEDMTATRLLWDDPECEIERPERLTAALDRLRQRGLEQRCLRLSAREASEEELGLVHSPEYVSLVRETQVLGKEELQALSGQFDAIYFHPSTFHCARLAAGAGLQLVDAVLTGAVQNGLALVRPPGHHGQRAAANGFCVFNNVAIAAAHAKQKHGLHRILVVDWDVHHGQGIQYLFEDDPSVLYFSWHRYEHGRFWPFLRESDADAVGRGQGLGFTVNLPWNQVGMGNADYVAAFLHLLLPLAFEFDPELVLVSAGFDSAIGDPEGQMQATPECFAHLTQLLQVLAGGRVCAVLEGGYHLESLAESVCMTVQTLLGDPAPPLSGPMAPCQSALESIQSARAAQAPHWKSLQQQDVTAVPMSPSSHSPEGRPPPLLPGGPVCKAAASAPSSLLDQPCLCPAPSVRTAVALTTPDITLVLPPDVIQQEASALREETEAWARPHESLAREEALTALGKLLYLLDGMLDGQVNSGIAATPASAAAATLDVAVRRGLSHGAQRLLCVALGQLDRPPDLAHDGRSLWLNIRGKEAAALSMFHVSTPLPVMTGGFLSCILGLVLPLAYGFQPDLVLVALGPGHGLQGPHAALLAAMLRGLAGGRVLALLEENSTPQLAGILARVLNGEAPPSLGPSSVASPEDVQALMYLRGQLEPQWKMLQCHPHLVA
Briefly: HDAC enzyme inhibition, fluorometric assay. The settings on record: read-out: Inhibitory activity against HDAC10 (IC50). In kind it is biochemical. As to the method:
Serially diluted DMSO sample solutions were added to the reaction wells, enzymes were added to a 384-well plate, and a reaction buffer was added to the control wells. The plate was incubated at room temperature for 15 min. After the fluorogenic substrate solution was added, the reaction was started. Fluorescence intensity readings (excitation: 355 nm, emission: 460 nm) were recorded every minute for 60 min using a Paradigm detector, and the slope values were calculated. Inhibition rate (%) = (maximum value - sample value)/(maximum value - minimum value) × 100%. The IC50 values were obtained by fitting a curve using the equation: Y = Bottom + (Top - Bottom)/(1 + (IC50/X)^HillSlope), where Y represents the inhibition rate and X represents the concentration of the compound. Table 10. Inhibitory activity of compound of the present disclosure against HDAC1, HDAC2, HDAC3, and HDAC10 (IC50, nM)

The subject of a further data set is 293T cell. The experiment in a line: Inhibition of 293T cell proliferation (CTG, intracellular ATP). In kind it is cell-based. The settings on record: Homo sapiens, HEK-293T, 72 h, compared to DMSO group, read-out: Inhibitory activity against 293T cell proliferation (IC50). As to the method:
Jurkat or 293T cells were seeded into a 96-well plate at 3000 cells/well. After overnight adherence culture, the serially diluted compound in DMSO was added. After 72 h, the intracellular ATP level was determined by CTG. The IC50 for the inhibition of cell proliferation by the compounds was calculated compared to the DMSO group. Table 8. Inhibitory activity of compounds of the present disclosure against Jurkat/293T cell proliferation (IC50, µM)

Data set [1] in a line: Metabolite identification in liver microsomes and hepatocytes from various species. Type of data set: in vitro ADME. The settings on record: 10 µM compound, 1.0 mg/mL liver microsomes, 37 °C, 120 min; mouse, rat, dog, monkey, human. As to the method:
After the 10 µM compound was separately incubated with 1.0 mg/mL liver microsomes or hepatocytes (from 5 species: mouse, rat, dog, monkey, and human), and an NADPH regeneration system at 37 °C for 120 min, a stop solution was added to terminate the reaction, and the incubated samples were removed from the water bath. After the reaction was terminated, the samples were vortexed and then centrifuged at 4 °C and 3260× g for 15 min. After centrifugation, all the supernatants were transferred to a 96-well plate for direct use in LC-MS analysis, or subjected to dilution or concentration and reconstitution prior to injection. An LC-UV-HRMSn (n = 1-2) analytical method was established on LC-UV-HRMSn, and data acquisition was performed using SCIEX OS software. The parent drug and the metabolites could be analyzed by mass spectrometry with different scanning modes (MS/MS or IDA) and ultraviolet full-wavelength scanning (λ = 190-500 nm). By comparing the ultraviolet and mass spectra of the post-incubation samples with those of blank samples from the same species, potential metabolites were identified. The possible structures of the metabolites were inferred by comparative analysis of the collision-induced dissociation (CID) fragments of the test compounds and their metabolites. The metabolites and their relative abundances were summarized in a table for interspecies comparison.
Background: Liver microsomes are a subcellular fraction often used to study metabolism.

Data set [2] can be described thus: Pharmacokinetic experiment in rats. To be noted: female, rat, plasma. Type of data set: in vivo. As to the method:
Healthy female rats aged 6 to 8 weeks were intravenously administered and orally administered at doses of 1 mg/kg and 10 mg/kg. The rats were fasted overnight before the administration.
On the day of the experiment, animals in the intravenous group were given the corresponding compound by single injection via the tail vein at an administration volume of 10 mL/kg; and animals in the oral group were given the corresponding compound by single intragastric injection at an administration volume of 10 mL/kg. The sample collection time points were 0.083 h, 0.167 h, 0.5 h, 1 h, 2 h, 4 h, 8 h, and 24 h. About 200 µL of whole blood was collected through the neck at each time point and used to prepare plasma for concentration determination by high-performance liquid chromatography-tandem mass spectrometry (LC-MS/MS). The plasma concentrations were processed using a non-compartmental model of Winnolin pharmacokinetic software, and the pharmacokinetic parameters were calculated using a linear-log trapezoidal method. Table 14. Results of in vivo pharmacokinetic evaluation of compounds

The mark [3] stands for this setting: Injection (1 mg/kg), intravenous.

For `Nc1cc(F)ccc1NC(=O)c1ccc(CNC(=O)/C=C/c2cccnc2)cc1` [Chidamide, reference compound], the values for the IC50 on HDAC10 and in the data set on 293T cell were 318 nM and 6710 nM, respectively.

With `[2H]c1cc(C(=O)Nc2ccc(F)cc2N)ccc1CNC(=O)/C=C/c1cccnc1` [Compound 5, (E)-N-(2-amino-4-fluorophenyl)-4-((3-(pyridin-3-yl)acrylamido)methyl)-3-d benzamide], in data set [1], the “metabolic pathways and stability in liver microsomes from all the species” value was “simple metabolic pathways and good stability in liver microsomes from all the species”. For the same compound, the IC50 on HDAC10 came to 127 nM. In data set [2] (setting [3]), this compound gave an AUC(0-t) of 1260 ng·h/mL, a clearance of 12.9 mL/min/kg and a half-life of 6.54 h. The Vd in data set [2] (Injection (1 mg/kg), intravenous, read-out: Vdss) came out at 2.42 L/kg. For the same compound, in data set [2] (Oral administration (10 mg/kg)), the AUC(0-t) stood at 5150 ng·h/mL, the Cmax was found to be 3420 ng/mL, the Tmax is 9.6 min and the bioavailability came to 40.1%. Also, the half-life in data set [2] (Oral administration (10 mg/kg)) is 4.01 h. Moreover, the IC50 in the data set with 293T cell is above 10000 nM.

Usually AUC(0-t) stands for exposure summed from dosing to a finite time, without extrapolation to infinity. The low end stands for less exposure, the high end for more exposure. As a reminder, the clearance is a measure of how efficiently the substance is removed, as volume per time. Higher therefore signals a high capacity for elimination. The half-life is the time in which the quantity being followed falls by half. Lower therefore signals rapid decline. Usually Cmax stands for the peak of the concentration-time curve. By Tmax is commonly meant the time at which the peak concentration occurs. For orientation: bioavailability means the share of a dose that reaches the circulation, judged against a reference dose that is usually intravenous. A high value points to good availability.
